This is an account of results in US9212182B2, “Bicyclic sulfonamide compounds as sodium channel inhibitors” (AMGEN INC., priority 2013, dated 2015).

One assay deals with Nav 1.7 (Homo sapiens (Human), UniProt Q15858). Briefly: in-vitro Nav 1.7 PX (IC50).
Nav 1.7, sequence (Q15858 whole entry): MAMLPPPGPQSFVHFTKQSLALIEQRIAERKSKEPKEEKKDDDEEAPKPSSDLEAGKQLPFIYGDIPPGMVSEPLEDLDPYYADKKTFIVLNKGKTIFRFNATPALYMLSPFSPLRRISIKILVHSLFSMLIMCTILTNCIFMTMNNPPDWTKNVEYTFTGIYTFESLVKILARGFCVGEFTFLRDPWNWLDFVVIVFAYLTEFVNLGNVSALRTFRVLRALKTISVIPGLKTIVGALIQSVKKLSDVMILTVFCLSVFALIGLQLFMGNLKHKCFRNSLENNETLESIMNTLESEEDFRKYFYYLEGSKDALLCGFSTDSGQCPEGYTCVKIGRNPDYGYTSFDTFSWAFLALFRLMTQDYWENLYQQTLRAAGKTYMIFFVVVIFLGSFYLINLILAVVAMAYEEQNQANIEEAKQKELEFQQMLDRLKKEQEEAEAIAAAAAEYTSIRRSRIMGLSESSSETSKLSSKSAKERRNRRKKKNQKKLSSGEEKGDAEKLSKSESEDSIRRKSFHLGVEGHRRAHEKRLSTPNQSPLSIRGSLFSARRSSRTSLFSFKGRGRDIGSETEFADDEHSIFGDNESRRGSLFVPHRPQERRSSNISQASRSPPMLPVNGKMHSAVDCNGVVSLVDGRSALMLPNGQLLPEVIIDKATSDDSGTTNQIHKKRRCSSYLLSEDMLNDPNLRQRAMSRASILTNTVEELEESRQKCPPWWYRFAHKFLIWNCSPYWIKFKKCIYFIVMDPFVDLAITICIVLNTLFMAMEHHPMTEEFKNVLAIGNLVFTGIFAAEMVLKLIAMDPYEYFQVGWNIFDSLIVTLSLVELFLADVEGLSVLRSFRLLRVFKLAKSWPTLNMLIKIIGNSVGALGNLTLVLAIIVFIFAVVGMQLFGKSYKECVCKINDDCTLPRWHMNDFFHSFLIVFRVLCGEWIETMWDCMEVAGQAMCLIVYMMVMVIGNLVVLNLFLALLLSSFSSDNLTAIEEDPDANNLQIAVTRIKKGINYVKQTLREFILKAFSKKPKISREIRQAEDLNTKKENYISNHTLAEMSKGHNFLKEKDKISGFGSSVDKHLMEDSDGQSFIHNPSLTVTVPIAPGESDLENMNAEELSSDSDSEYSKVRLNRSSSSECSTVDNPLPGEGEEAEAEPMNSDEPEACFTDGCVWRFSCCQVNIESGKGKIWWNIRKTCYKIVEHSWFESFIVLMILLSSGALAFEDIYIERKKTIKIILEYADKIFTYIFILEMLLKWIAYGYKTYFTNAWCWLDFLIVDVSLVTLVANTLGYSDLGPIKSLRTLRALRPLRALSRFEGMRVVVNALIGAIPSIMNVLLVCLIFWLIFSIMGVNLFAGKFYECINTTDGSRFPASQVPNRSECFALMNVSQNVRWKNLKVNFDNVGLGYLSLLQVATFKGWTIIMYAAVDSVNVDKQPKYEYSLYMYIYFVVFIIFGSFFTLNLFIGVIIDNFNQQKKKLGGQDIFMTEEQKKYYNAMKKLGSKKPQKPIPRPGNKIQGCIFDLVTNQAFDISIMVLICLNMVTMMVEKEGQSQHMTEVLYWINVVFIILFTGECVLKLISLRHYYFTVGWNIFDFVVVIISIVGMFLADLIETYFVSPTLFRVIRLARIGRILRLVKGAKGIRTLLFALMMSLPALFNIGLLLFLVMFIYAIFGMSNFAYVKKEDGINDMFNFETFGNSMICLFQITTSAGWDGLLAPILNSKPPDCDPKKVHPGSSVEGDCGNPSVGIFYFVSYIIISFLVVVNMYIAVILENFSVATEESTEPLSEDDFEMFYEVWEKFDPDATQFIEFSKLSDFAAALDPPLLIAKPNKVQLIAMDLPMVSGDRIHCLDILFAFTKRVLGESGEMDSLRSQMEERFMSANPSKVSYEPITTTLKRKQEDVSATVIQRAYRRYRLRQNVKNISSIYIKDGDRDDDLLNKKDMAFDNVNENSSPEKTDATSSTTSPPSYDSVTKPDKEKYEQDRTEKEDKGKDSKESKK
Conditions: not given
Format: cell-based.
`COc1cc(-c2cccc(Cl)c2)c(Cl)cc1-n1c(=O)ccc2cc(S(=O)(=O)Nc3ccon3)ccc21` (atropisomer, axis not shown; (P)) [Example 459, (P)-1-(2,3′-dichloro-5-methoxy-[1,1′-biphenyl]-4-yl)-N-(isoxazol-3-yl)-2-oxo-1,2-dihydroquinoline-6-sulfonamide]: it took 12 nM to reach half-maximal inhibition (IC50).
The same measure, in the same setting: then `COc1cc(-c2ccc(Cl)c(C)c2)c(Cl)cc1-n1c(=O)ccc2cc(S(=O)(=O)Nc3ccon3)ccc21` (atropisomer, axis not shown; (P)) [Example 471, (P)-1-(2,4′-dichloro-5-methoxy-3′-methyl-[1,1′-biphenyl]-4-yl)-N-(isoxazol-3-yl)-2-oxo-1,2-dihydroquinoline-6-sulfonamide], with 8 nM.
Still for that read-out and setting: then `COc1cc(Br)c(Cl)cc1-n1c(=O)ccc2cc(S(=O)(=O)Nc3ccon3)ccc21` (atropisomer, axis not shown; (P)) [Example 473, (P)-1-(4-bromo-5-chloro-2-methoxyphenyl)-N-(isoxazol-3-yl)-2-oxo-1,2-dihydroquinoline-6-sulfonamide], with 178 nM; and `COc1ccc(-c2cccc(F)c2)cc1-n1c(=O)ccc2cc(S(=O)(=O)Nc3ccon3)ccc21` (atropisomer, axis not shown; (P)) [Example 483, (P)-1-(3′-fluoro-4-methoxy-3-biphenylyl)-N-3-isoxazolyl-2-oxo-1,2-dihydro-6-quinolinesulfonamide], with 54 nM; and `COc1cc(-c2cc(F)cc(Cl)c2)c(F)cc1-n1c(=O)ccc2cc(S(=O)(=O)Nc3ncccn3)ccc21` (atropisomer, axis not shown; (P)) [Example 541, (P)-1-(3′-chloro-2,5′-difluoro-5-methoxy-4-biphenylyl)-2-oxo-N-2-pyrimidinyl-1,2-dihydro-6-quinolinesulfonamide], with 18 nM.
On the same count and under the same terms, the result for `COc1cc(-c2cc(F)cc(Cl)c2)c(F)cc1-n1c(=O)ccc2cc(S(=O)(=O)Nc3cccnn3)ccc21` (atropisomer, axis not shown; (P)) [Example 542, (P)-1-(3′-chloro-2,5′-difluoro-5-methoxy-4-biphenylyl)-2-oxo-N-3-pyridazinyl-1,2-dihydro-6-quinolinesulfonamide] reads 7 nM.
`COc1cc(-c2cc(F)cc(Cl)c2)c(F)cc1-n1c(=O)ccc2cc(S(=O)(=O)Nc3cnccn3)ccc21` (atropisomer, axis not shown; (P)) [Example 543, (P)-1-(3′-chloro-2,5′-difluoro-5-methoxy-4-biphenylyl)-2-oxo-N-2-pyrazinyl-1,2-dihydro-6-quinolinesulfonamide] returned a 50% inhibitory concentration (IC50) of 13 nM.
Still for that read-out and setting: then `COc1cc(-c2cc(F)cc(Cl)c2)c(F)cc1-n1c(=O)ccc2cc(S(=O)(=O)Nc3ncc(F)cn3)ccc21` (atropisomer, axis not shown; (P)) [Example 544, (P)-1-(3′-chloro-2,5′-difluoro-5-methoxy-4-biphenylyl)-N-(5-fluoro-2-pyrimidinyl)-2-oxo-1,2-dihydro-6-quinolinesulfonamide], with 14 nM; and `COc1cc(-c2cccc(F)c2)c(Cl)cc1-n1c(=O)ccc2cc(S(=O)(=O)Nc3ccon3)c(F)cc21` (atropisomer, axis not shown; (P)) [Example 545, (P)-1-(2-chloro-3′-fluoro-5-methoxy-4-biphenylyl)-7-fluoro-N-3-isoxazolyl-2-oxo-1,2-dihydro-6-quinolinesulfonamide], with 10 nM; and `COc1cc(-c2cccc(F)c2)c(C)cc1-n1c(=O)cc(C)c2cc(S(=O)(=O)Nc3ccon3)ccc21` (atropisomer, axis not shown; (P)) [Example 568, (P)-1-(3′-fluoro-5-methoxy-2-methyl-4-biphenylyl)-N-3-isoxazolyl-4-methyl-2-oxo-1,2-dihydro-6-quinolinesulfonamide], with 92 nM.
Turning to `COc1cc(-c2cc(F)cc(F)c2)c(C)cc1-n1c(=O)cc(C)c2cc(S(=O)(=O)Nc3ccon3)ccc21` (atropisomer, axis not shown; (P)) [Example 570, (P)-1-(3′,5′-difluoro-5-methoxy-2-methyl-4-biphenylyl)-N-3-isoxazolyl-4-methyl-2-oxo-1,2-dihydro-6-quinolinesulfonamide], 67 nM corresponded to half-maximal inhibition (IC50).
The compound `COc1cc(-c2cccc(F)c2)c(F)cc1-n1c(=O)cc(C)c2cc(S(=O)(=O)Nc3ccon3)ccc21` (atropisomer, axis not shown; (P)) [Example 572, (P)-1-(2,3′-difluoro-5-methoxy-4-biphenylyl)-N-3-isoxazolyl-4-methyl-2-oxo-1,2-dihydro-6-quinolinesulfonamide] registered an IC50 of 485 nM.

The same assay, now with this note: in-vitro PatchXpress (PX).
As to `COc1cc(-c2cc(F)cc(Cl)c2)ccc1-n1c(=O)ccc2cc(S(=O)(=O)Nc3cccnn3)ccc21` (atropisomer, axis not shown; (P)) [Example 480, (P)-1-(3′-chloro-5′-fluoro-3-methoxy-4-biphenylyl)-2-oxo-N-3-pyridazinyl-1,2-dihydro-6-quinolinesulfonamide], the concentration for half-maximal inhibition (IC50) came to 8 nM.
The same measure, in the same setting: the result for `COc1cc(-c2cccc(C#N)c2)c(F)cc1-n1c(=O)ccc2cc(S(=O)(=O)Nc3ccon3)ccc21` (atropisomer, axis not shown; (P)) [Example 498, (P)-1-(3′-cyano-2-fluoro-5-methoxy-4-biphenylyl)-N-3-isoxazolyl-2-oxo-1,2-dihydro-6-quinolinesulfonamide] reads 34 nM; that for `COc1cc(Cl)cc(-c2cc(OC)c(-n3c(=O)ccc4cc(S(=O)(=O)Nc5ccon5)ccc43)cc2F)c1` (atropisomer, axis not shown; (P)) [Example 501, (P)-1-(3′-chloro-2-fluoro-5,5′-dimethoxy-4-biphenylyl)-N-3-isoxazolyl-2-oxo-1,2-dihydro-6-quinolinesulfonamide], 4 nM.
Same read-out and setting: the result for `COc1cc(-c2ccc(Cl)c(F)c2)c(F)cc1-n1c(=O)ccc2cc(S(=O)(=O)Nc3ccon3)ccc21` (atropisomer, axis not shown; (P)) [Example 503, (P)-1-(4′-chloro-2,3′-difluoro-5-methoxy-4-biphenylyl)-N-3-isoxazolyl-2-oxo-1,2-dihydro-6-quinolinesulfonamide] reads 1100 nM.
The same measure, in the same setting: the result for `COc1cc(-c2cc(C)cc(Cl)c2)c(F)cc1-n1c(=O)ccc2cc(S(=O)(=O)Nc3ccon3)ccc21` (atropisomer, axis not shown; (P)) [Example 506, (P)-1-(3′-chloro-2-fluoro-5-methoxy-5′-methyl-4-biphenylyl)-N-3-isoxazolyl-2-oxo-1,2-dihydro-6-quinolinesulfonamide] reads 8 nM; that for `COc1cc(-c2ccc(Cl)c(C#N)c2)c(F)cc1-n1c(=O)ccc2cc(S(=O)(=O)Nc3ccon3)ccc21` (atropisomer, axis not shown; (P)) [Example 508, (P)-1-(4′-chloro-3′-cyano-2-fluoro-5-methoxy-4-biphenylyl)-N-3-isoxazolyl-2-oxo-1,2-dihydro-6-quinolinesulfonamide], 7 nM.
On to `COc1cc(-c2cc(F)cc(F)c2F)c(F)cc1-n1c(=O)ccc2cc(S(=O)(=O)Nc3ccon3)ccc21` (atropisomer, axis not shown; (P)) [Example 514, (P)—N-3-isoxazolyl-2-oxo-1-(2,2′,3′,5′-tetrafluoro-5-methoxy-4-biphenylyl)-1,2-dihydro-6-quinolinesulfonamide], for which the IC50 stood at 18 nM.
Same read-out and setting: the result for `COc1cc(-c2cc(F)c(F)cc2F)c(F)cc1-n1c(=O)ccc2cc(S(=O)(=O)Nc3ccon3)ccc21` (atropisomer, axis not shown; (P)) [Example 516, (P)—N-3-isoxazolyl-2-oxo-1-(2,2′,4′,5′-tetrafluoro-5-methoxy-4-biphenylyl)-1,2-dihydro-6-quinolinesulfonamide] reads more than 10000 nM; that for `COc1cc(-c2cc(Cl)cc(C#N)c2)c(F)cc1-n1c(=O)ccc2cc(S(=O)(=O)Nc3ccon3)ccc21` (atropisomer, axis not shown; (P)) [Example 518, (P)-1-(3′-chloro-5′-cyano-2-fluoro-5-methoxy-4-biphenylyl)-N-3-isoxazolyl-2-oxo-1,2-dihydro-6-quinolinesulfonamide], 2000 nM; that for `COc1cc(-c2ccc(C#N)c(Cl)c2)c(F)cc1-n1c(=O)ccc2cc(S(=O)(=O)Nc3ccon3)ccc21` (atropisomer, axis not shown; (P)) [Example 520, (P)-1-(3′-chloro-4′-cyano-2-fluoro-5-methoxy-4-biphenylyl)-N-3-isoxazolyl-2-oxo-1,2-dihydro-6-quinolinesulfonamide], 26 nM.
In turn, `COc1cc(-c2cccc(C)c2)c(F)cc1-n1c(=O)ccc2cc(S(=O)(=O)Nc3ccon3)ccc21` (atropisomer, axis not shown; (P)) [Example 522, (P)-1-(2-fluoro-5-methoxy-3′-methyl-4-biphenylyl)-N-3-isoxazolyl-2-oxo-1,2-dihydro-6-quinolinesulfonamide] returned an IC50 of 9 nM.
The same measure, in the same setting: the result for `COc1cc(-c2ccc(C)c(C#N)c2)c(F)cc1-n1c(=O)ccc2cc(S(=O)(=O)Nc3ccon3)ccc21` (atropisomer, axis not shown; (P)) [Example 524, (P)-1-(3′-cyano-2-fluoro-5-methoxy-4′-methyl-4-biphenylyl)-N-3-isoxazolyl-2-oxo-1,2-dihydro-6-quinolinesulfonamide] reads 25 nM; that for `COc1cc(-c2cc(C)cc(C#N)c2)c(F)cc1-n1c(=O)ccc2cc(S(=O)(=O)Nc3ccon3)ccc21` (atropisomer, axis not shown; (P)) [Example 526, (P)-1-(3′-cyano-2-fluoro-5-methoxy-5′-methyl-4-biphenylyl)-N-3-isoxazolyl-2-oxo-1,2-dihydro-6-quinolinesulfonamide], 31 nM.
Same read-out and setting: the result for `COc1cc(-c2ccc(C)c(Cl)c2)c(F)cc1-n1c(=O)ccc2cc(S(=O)(=O)Nc3ccon3)ccc21` (atropisomer, axis not shown; (P)) [Example 528, (P)-1-(3′-chloro-2-fluoro-5-methoxy-4′-methyl-4-biphenylyl)-N-3-isoxazolyl-2-oxo-1,2-dihydro-6-quinolinesulfonamide] reads 7 nM.
